Series [1] can be described thus: Solubility of the compounds in tested solvents. Type of series: physicochemical. More on the design: key to solubility: “−” means NO solubility; “++” means VERY GOOD solubility.
A short description of series [2]: Refractive index (RI) measured at 20° C. Format: physicochemical. How it is done: (§1) (nD^20) and viscosity n measured at 23° C. (η23° C.) for compounds of formula (I) according to the invention denoted as (Ib) and (Ic), and comparative compounds (C1), (C2) and (C3). Compound (Ib) is N,N′-bisacryloyl-N,N′-bisallyl-[…], and compound (Ic) is N,N′-bisacryloyl-N,N′-bispropyl-1,4-but-2-endiamine. Comparative compound (C1) is N,N′-bisacetyl-N,N′-bisallyl-1,4-but-2-endiamine, (C2) is N,N′-bisacryloyl-N,N′-bisallyl-1,4-butandiamine, and C(3) is N,N′-bisacryloyl-N,N′-bispropyl-1,4-butandiamine. In FIG. 1, RI is depicted by dark grey bars, and the viscosity η by light grey hatched bars. For comparative compound (C1), no viscosity η was determined (indicated by “*”), since this compound is a solid.

Series [3] is described as follows: Viscosity measured at 23° C. Format: physicochemical. The settings on record: viscosity at 23° C. How it is done: as §1
The nature of series [4]: Discoloration of the dental composition upon storage. The note with it: storage at 50° C. for 30 days. Format: physicochemical. The source says: Discoloration upon storage and/or during photocuring may be determined according to ISO 7491:2000(en).
[5] abbreviates: refractive index at 20° C., tables.
Where [6] appears, read: refractive index, preparative examples.

In the case of `C=CCN(CCCCN(CC=C)C(=O)C=C)C(=O)C=C` [(C2), N,N′-Bisacryloyl-N,N′-bisallyl-1,4-butandiamine], the solubility result in series [1] (EtOH) is listed as “−”; in series [1] (acetone) it was “++”; in series [1] (iPrOH), “−”; in series [1] (methacrylic acid), “++”; in series [1] (water) it was “−”; in series [1] (water/alcohol), “−”. The solubility in alcohols result in series [1] (alcohols like ethanol or isopropanol) is on record as “not soluble”. Moreover, the “nD^20” value in series [2] (setting [5]) was determined as 1.5150; in series [2] (setting [6]) it was 1.515. Besides, the “η23° C.” value in series [3] (tables) was 382.0 mPa · s.

For `C=CC(=O)N(CCC)CCCCN(CCC)C(=O)C=C` [(C3), N,N′-Bisacryloyl-N,N′-bispropyl-1,4-butandiamine], the solubility result in series [1] (EtOH) is on record as “++”; in series [1] (acetone) it was “++”; in series [1] (iPrOH) it was “++”; in series [1] (methacrylic acid), “++”; in series [1] (water), “−”. The “nD^20” value in series [2] (setting [5]) worked out at 1.5150; in series [2] (setting [6]), 1.515. Moreover, the “η23° C.” value worked out at 486±1 Pa*s in series [3] (preparative examples) and 485.5 mPa · s in series [3] (tables).

On to `C=CCN(C/C=C/CN(CC=C)C(=O)C=C)C(=O)C=C` [(Ia)], for which the solubility result in series [1] (EtOH) is on record as “++”; in series [1] (acetone), “++***)”; in series [1] (iPrOH), “++”; in series [1] (methacrylic acid), “++”; in series [1] (water), “−**^)”. Also, in series [2] (setting [5]), the “nD^20” value is 1.5290. In addition, the “η23° C.” value in series [3] (tables) was found to be 338.0 mPa · s.

On to `CC(C)(C)c1cc(O)c(C(C)(C)C)cc1O` [DTBHQ], for which the “discoloration of the dental composition upon storage” value in series [4] was “no or almost no discoloration”.

With `C=CC(=O)N(C/C=C/CN(CCC)C(=O)C=C)CCC` [(Ic), N,N′-Bisacryloyl-N,N′-bispropyl-1,4-but-2-endiamine], the solubility entry is “++” in series [1] (EtOH); “++” in series [1] (acetone); “++” in series [1] (iPrOH); “++” in series [1] (methacrylic acid); “−” in series [1] (water). Moreover, the “nD^20” value in series [2] (setting [5]) and in series [2] (setting [6]) was 1.5095 each time. The “η23° C.” value in series [3] (preparative examples) was determined as 428±3 Pa*s; in series [3] (tables), 427.5 mPa · s.

Take `C=CCN(C/C=C/C(C)N(CC=C)C(=O)C=C)C(=O)C=C` (stereo not drawn) [Compound (Ib)]: the solubility result in series [1] (EtOH) is recorded as “++”; in series [1] (acetone), “++”; in series [1] (iPrOH), “++”; in series [1] (methacrylic acid), “++”; in series [1] (water) it was “−”. The “nD^20” value in series [2] (setting [5]) is given as 1.5260; in series [2] (setting [6]), 1.526. The “η23° C.” value in series [3] (tables) is given as 409.0 mPa · s.

`C=CCN(C/C=C/CN(CC=C)C(C)=O)C(C)=O` [(C1), N,N′-Bisacetyl-N,N′-bisallyl-1,4-but-2-endiamine] displayed a melting point of 32 °C. The solubility result in series [1] (EtOH) was “++”. Besides, the solubility entry in series [1] (acetone) was “++”. In addition, the solubility entry in series [1] (iPrOH) is “++”. Also, in series [1] (methacrylic acid), the solubility entry is given as “++”. Further, the solubility entry in series [1] (water) is given as “−”. Also, the “nD^20” value in series [2] (setting [6]) is listed as 1.505.

For orientation: melting point means the temperature, or range, at which the solid turns liquid.

The record behind these values is patent publication US11000454B2, “Dental composition” (DENTSPLY SIRONA inc., priority 2016, dated 2021).
